Test [1] deals with T1, Recombinant human liver GK1 (GST-GK) (Homo sapiens, UniProt P35557).
T1 construct: made in house; host or cells: E. coli
T1 sequence (P35557 1-466 isoform P35557-2): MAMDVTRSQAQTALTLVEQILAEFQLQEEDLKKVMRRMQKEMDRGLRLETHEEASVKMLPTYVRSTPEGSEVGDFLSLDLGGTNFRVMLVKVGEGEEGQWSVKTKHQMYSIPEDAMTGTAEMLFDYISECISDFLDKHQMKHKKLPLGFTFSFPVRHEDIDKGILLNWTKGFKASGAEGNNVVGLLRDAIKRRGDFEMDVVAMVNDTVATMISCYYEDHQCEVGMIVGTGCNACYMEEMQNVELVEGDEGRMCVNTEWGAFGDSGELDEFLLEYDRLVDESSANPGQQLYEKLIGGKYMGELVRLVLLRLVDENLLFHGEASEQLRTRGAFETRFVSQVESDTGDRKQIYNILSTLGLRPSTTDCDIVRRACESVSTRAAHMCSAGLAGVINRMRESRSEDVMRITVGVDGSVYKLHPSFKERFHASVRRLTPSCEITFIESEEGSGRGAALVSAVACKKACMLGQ
Kind of test: In vitro glucokinase activity (G6PDH-coupled NADH assay). Type of test: biochemical. To be noted: 30° C., 5 mM D-glucose, 10% DMSO. An outline of the steps:
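GST-tagged human liver GK1 from E. coli, assayed at 30° C in 25 mM Hepes pH 7.1 with 5 mM D-glucose, 1 mM ATP, 1.8 mM NAD and G6PDH coupling, 10% DMSO final; reaction started with enzyme after 10 min preincubation. NADH formation followed at OD340; SC1.5 is activator concentration giving 50% increase over DMSO control rate.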

Test [2] concerns C57B6 mice. Kind of test: Glucokinase activator in vivo screen: blood glucose lowering in mice after oral dosing. To be noted: Mus musculus, vs control, 4 h post 30 mg/kg oral dose, read-out: % gluc lowering @ 4 H. How it is done:
Glucokinase Activator in vivo Screen Protocol in Lean and Diet Induced Obese Mice: Lean or Diet-Induced Obese (DIO) C57BL/6J mice were orally dosed via gavage with Glucokinase (GK) activator following a two hour fasting period. Blood glucose determinations were made at various (e.g. 0, 1, 2, 4 and 8 h post-oral gavage) times during the study.
C57Bl/6J mice were obtained from Jackson Laboratory (Bar Harbor, Me.) and were maintained in a light-dark cycle with lights on from 0600-1800 hr. For studies in lean mice, the mice were received at age ten weeks and given ad libitum access to control diet (LabDiet 5001 chow, PMI Nutrition, Brentwood, Mo.), and were at least age 11 weeks at the time of study. For studies in the DIO model, the mice were received at age five weeks and given ad libitum access to Bio-Serv F3282 High Fat Diet (Frenchtown, N.J.), and were at least age 16 weeks at the time of study. The experiments were conducted during the light phase of the light-dark cycle. Mice (n=6) are weighed and fasted for a two hour period prior to oral treatment. GK activators are formulated in Gelucire vehicle (Ethanol:Gelucire44/14:PEG400q.s. 4:66:30 v/w/v. For studies in lean mice, the mice were dosed orally with 5.0 μL per gram of body weight (i.e. 5 ml/kg×10.0 mg/ml formulation to equal a 50 mg/kg dose). For studies in DIO mice, the mice were dosed orally with 5.0 μL per gram of body weight (i.e. 5.0 ml/kg×5 mg/ml formulation to equal a 25 mg/kg dose). Immediately prior to dosing, a pre-dose (time zero) blood glucose reading was acquired by snipping off a small portion of the animal's tail and collecting 15 μL blood into a heparinized capillary tube for analysis. Following GK activator administration, additional blood glucose readings were taken at various time points post dose from the same tail wound. Results were interpreted by comparing the mean blood glucose values of vehicle treated mice with GK activator treated mice over the study period.
The Table below provides data for % glucose lowering of a representative number of compounds of the present invention vs control at 4 h post 25 or 30 mg/kg dose in C57B6 mice: […]

This is an account of results in patent US7741327B2 (Hoffmann-La Roche Inc., priority 2008, dated 2010).

With `COc1cccc(OC2=CC(=O)N([C@@H](CC(C)C)C(=O)Nc3ccn(C[C@@H](O)CO)n3)C2)c1Cl` [Example 49], the “SC1.5 (concentration of activator that produced a 50% increase in the activity of GK)” value in test [1] worked out at 0.079 µM. For the same compound, the change in vivo at 30 mg/kg in test [2] is -38.3%.

Take `COc1cccc(OC2=CC(=O)N([C@@H](CC3CCOCC3)C(=O)Nc3ccn(CC(C)(C)O)n3)C2)c1Cl` [Example 51, (S)-2-[4-(2-Chloro-3-methoxy-phenoxy)-2-oxo-2,5-dihydro-pyrrol-1-yl]-N-[1-(2-hydroxy-2-methyl-propyl)-1H-pyrazol-3-yl]-3-(tetrahydro-pyran-4-yl)-propionamide]: the “SC1.5 (concentration of activator that produced a 50% increase in the activity of GK)” value in test [1] stood at 0.03 µM. The change in vivo at 30 mg/kg in test [2] is -53.9%.

In the case of `CC(C)C[C@@H](C(=O)Nc1ccn(CC(C)(C)O)n1)N1CC(Oc2ccccc2Cl)=CC1=O` [Example 64, (S)-2-[4-(2-Chloro-phenoxy)-2-oxo-2,5-dihydro-pyrrol-1-yl]-4-methyl-pentanoic acid [1-(2-hydroxy-2-methyl-propyl)-1H-pyrazol-3-yl]-amide], the “SC1.5 (concentration of activator that produced a 50% increase in the activity of GK)” value in test [1] turned out to be 0.125 µM. In addition, the change in vivo at 30 mg/kg in test [2] was -58%.

Regarding `CC(C)C[C@@H](C(=O)Nc1ccn(C[C@@H](O)CO)n1)N1CC(Oc2ccccc2Cl)=CC1=O` [Example 66, (S)-2-[4-(2-Chloro-phenoxy)-2-oxo-2,5-dihydro-pyrrol-1-yl]-4-methyl-pentanoic acid [1-((R)-2,3-dihydroxy-propyl)-1H-pyrazol-3-yl]-amide], in test [1], the “SC1.5 (concentration of activator that produced a 50% increase in the activity of GK)” value amounted to 0.118 µM. The change in vivo at 30 mg/kg in test [2] is -55.4%.

Turning to `CC(C)C[C@@H](C(=O)Nc1ccn(CC(C)(C)O)n1)N1CC(Oc2cccc(Cl)c2Cl)=CC1=O.Cl` [Example 77, (S)-2-[4-(2,3-Dichloro-phenoxy)-2-oxo-2,5-dihydro-pyrrol-1-yl]-4-methyl-pentanoic acid [1-(2-hydroxy-2-methyl-propyl)-1H-pyrazol-3-yl]-amide Hydrochloride], in test [1], the “SC1.5 (concentration of activator that produced a 50% increase in the activity of GK)” value was determined as 0.162 µM. In test [2], the change in vivo at 30 mg/kg was -39.2%.

In the case of `CC(C)(O)Cn1ccc(NC(=O)[C@H](CC2CCCC2)N2CC(Oc3c(F)cccc3F)=CC2=O)n1` [Example 86, (S)-3-Cyclopentyl-2-[4-(2,6-difluoro-phenoxy)-2-oxo-2,5-dihydro-pyrrol-1-yl]-N-[1-(2-hydroxy-2-methyl-propyl)-1H-pyrazol-3-yl]-propionamide], the “SC1.5 (concentration of activator that produced a 50% increase in the activity of GK)” value in test [1] came out at 0.021 µM. For the same compound, the change in vivo at 30 mg/kg in test [2] is -57.4%.

For `O=C(Nc1ccn(C[C@@H](O)CO)n1)[C@H](CC1CCCC1)N1CC(Oc2c(F)cccc2F)=CC1=O` [Example 88, (S)-3-Cyclopentyl-2-[4-(2,6-difluoro-phenoxy)-2-oxo-2,5-dihydro-pyrrol-1-yl]-N-[1-((R)-2,3-dihydroxy-propyl)-1H-pyrazol-3-yl]-propionamide], in test [1], the “SC1.5 (concentration of activator that produced a 50% increase in the activity of GK)” value worked out at 0.03 µM. Also, the change in vivo at 30 mg/kg in test [2] was -49.3%.
